In US20040097728A1, “Method for producing anellated tetrahydro-{1h}-triazoles” (priority 2000, published 2004):

What was measured:
[1] = test system: ABUTH; assay: greenhouse herbicidal action, post-emergence treatment; format: in vivo, velvet leaf; conditions: post-emergence method, application rates of 7.8 and 3.9 g of a.s./ha
From the text: (§1) The seeds of the test plants were sown separately for each species. For the post-emergence treatment, the test plants were first grown to a height of 3 to 15 cm, depending on the plant habit, and then treated with the active compounds which had been suspened or emulsified in water. To this end, the test plants were either sown directly and grown in the same containers, or they were first grown separately as seedlings and transplanted into the test containers a few days prior to the treatment. The application rates for the post-emergence treatments were 62.5, 31.2, 15.6, 7.8 and 3.9 g of a.s./ha. Depending on the species, the plants were kept at 10-25° C. or 20-35° C. The test period extended over 2 to 4 weeks. During this time, the plants were tended, and their response to the individual treatments was evaluated. Evaluation was carried out using a scale from 0 to 100. 100 means no emergence of the plants, or complete destruction of at least the above-ground parts, and O means no damage, or normal course of growth. The plants used in the greenhouse experiments were of the following species: [table]

[2] = test system: CHEAL; assay: as above; format: in vivo, lambsquarters (goosefoot); conditions: post-emergence method, application rates of 7.8 and 3.9 g of a.s./ha
From the text: as §1

[3] = test system: AMARE; assay: as above; format: in vivo, common amaranth; conditions: post-emergence method, application rates of 7.8 and 3.9 g of a.s./ha
From the text: as §1

[4] = test system: PHBPU; assay: as above; format: in vivo, common morning glory; conditions: post-emergence method, application rates of 7.8 and 3.9 g of a.s./ha
From the text: as §1

| Compound | herbicidal activity against ABUTH [1] | herbicidal activity against CHEAL [2] | herbicidal activity against AMARE [3] | herbicidal activity against PHPBU [4] | melting point |
| --- | --- | --- | --- | --- | --- |
| 2-[4-Chloro-2-fluoro-5-(2-propynyloxy)phenyl]-3-thiotetrahydro-1H-(1,2,4)triazolo[1,2-c][1,3,4]oxadiazin-1-one [Example 5] | very good | very good | very good | very good | – |
| C#CCOc1cc(-n2c(=O)n3n(c2=S)COCC3)c(F)cc1C#N [Example 75, 2-[4-Cyano-2-fluoro-5-(propargyloxy)phenyl]-3-thioxotetrahydro-1H-[1,2,4]-triazolo-[1,2-c][1,3,4]-oxadiazin-1-one] | – | – | – | – | 226 to 227 °C |
